# Measured values published in the supplement of paper PMC10307832.
# How the values were obtained:
# Assay in all cases: relative viability (nuclei count vs DMSO), 5 days (fraction); higher = more cells survive
# Ponatinib + OSI-027 = compound: Cc1ccc(C(=O)Nc2ccc(CN3CCN(C)CC3)c(C(F)(F)F)c2)cc1C#Cc1cnc2cccnn12 [Ponatinib] + COc1cccc2cc(-c3nc([C@H]4CC[C@H](C(=O)O)CC4)n4ncnc(N)c34)[nH]c12 [OSI-027] (partner 0.5 µM)
# Procedure, shortened: (§1)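 Five library-drug doses in √10 steps were combined with a fixed anchor-drug dose, or a single drug was given alone, by pin tool to lung cancer cell lines in 1536-well plates the day after seeding. Nuclei were stained and counted after 5 days. Relative viability is the nuclei count in treated wells over that in vehicle wells, taken as the median of duplicate plates.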
# Ponatinib + Tozasertib = compound: Cc1ccc(C(=O)Nc2ccc(CN3CCN(C)CC3)c(C(F)(F)F)c2)cc1C#Cc1cnc2cccnn12 [Ponatinib] + Cc1cc(Nc2cc(N3CCN(C)CC3)nc(Sc3ccc(NC(=O)C4CC4)cc3)n2)n[nH]1 [Tozasertib] (partner 0.1 µM)
# Procedure, shortened: as §1
# Pazopanib + Alpelisib = compound: Cc1ccc(Nc2nccc(N(C)c3ccc4c(C)n(C)nc4c3)n2)cc1S(N)(=O)=O [Pazopanib] + Cc1nc(NC(=O)N2CCC[C@H]2C(N)=O)sc1-c1ccnc(C(C)(C)C(F)(F)F)c1 [Alpelisib] (partner 2 µM)
# Procedure, shortened: as §1
# Ponatinib + AZD7762 = compound: Cc1ccc(C(=O)Nc2ccc(CN3CCN(C)CC3)c(C(F)(F)F)c2)cc1C#Cc1cnc2cccnn12 [Ponatinib] + NC(=O)Nc1cc(-c2cccc(F)c2)sc1C(=O)N[C@H]1CCCNC1 [AZD7762] (partner 0.2 µM)
# Procedure, shortened: as §1
Cell Line,relative viability (Ponatinib + OSI-027; first compound 0.002 µM),relative viability (Ponatinib + OSI-027; first compound 0.006325 µM),relative viability (Ponatinib + OSI-027; first compound 0.06325 µM),relative viability (Ponatinib + OSI-027; first compound 0.2 µM),relative viability (Ponatinib + Tozasertib; first compound 0.002 µM),relative viability (Ponatinib + Tozasertib; first compound 0.006325 µM),relative viability (Ponatinib + Tozasertib; first compound 0.06325 µM),relative viability (Ponatinib + Tozasertib; first compound 0.2 µM),relative viability (Pazopanib + Alpelisib; first compound 0.01 µM),relative viability (Pazopanib + Alpelisib; first compound 0.03162 µM),relative viability (Pazopanib + Alpelisib; first compound 0.1 µM),relative viability (Pazopanib + Alpelisib; first compound 0.3162 µM),relative viability (Pazopanib + Alpelisib; first compound 1 µM),relative viability (Ponatinib + AZD7762; first compound 0.002 µM),relative viability (Ponatinib + AZD7762; first compound 0.006325 µM),relative viability (Ponatinib + AZD7762; first compound 0.06325 µM),relative viability (Ponatinib + AZD7762; first compound 0.2 µM)
NCI-H661,0.669,0.707,0.763,0.666,0.36,0.345,0.351,0.368,0.549,0.581,0.595,0.669,0.866,–,–,–,–
NCI-H1650,0.611,0.66,0.748,0.568,0.323,0.411,0.348,0.304,–,–,–,–,–,–,–,–,–
COR-L 105,0.638,0.807,1.03,0.744,0.304,0.343,0.372,0.316,0.981,1.03,1.04,1.07,1.04,–,–,–,–
ChaGo-K-1,0.465,0.594,0.571,0.493,0.234,0.213,0.177,0.209,–,–,–,–,–,0.763,0.857,0.847,0.819
NCI-H2228,0.474,0.431,0.705,0.376,0.225,0.286,0.161,0.234,0.783,0.89,1.02,0.769,0.643,–,–,–,–
NCI-H520,0.273,0.244,0.203,0.2,0.45,0.419,0.397,0.372,–,1.04,0.884,0.873,0.816,–,–,–,–
SW 900,0.465,0.575,0.623,0.577,0.58,0.51,0.337,0.38,–,–,–,–,–,0.569,0.46,0.606,0.537
NCI-H1563,0.764,0.711,0.687,0.692,–,–,–,–,0.902,0.868,0.978,0.935,0.929,–,–,–,–
A549,–,–,–,–,–,–,–,–,0.798,0.685,0.828,0.746,1.01,–,–,–,–
NCI-H2342,0.557,0.602,0.53,0.637,0.489,0.639,0.403,0.591,–,–,–,–,–,0.436,0.457,0.467,0.456
NCI-H1623,0.446,0.432,0.418,0.447,0.429,0.426,0.453,0.419,–,–,–,–,–,–,–,–,–
NCI-H522,0.641,0.683,0.65,0.578,0.51,0.543,0.476,0.455,–,–,–,–,–,0.664,0.784,0.695,0.819
IA-LM,–,–,–,–,–,–,–,–,0.665,0.856,0.876,0.669,0.509,–,–,–,–
SK-MES-1,0.566,0.653,0.717,0.537,0.828,0.909,0.964,0.842,0.816,0.872,1.02,0.977,0.836,–,–,–,–
EBC-1,–,–,–,–,–,–,–,–,0.914,0.907,0.913,0.914,1,–,–,–,–
